Laboratory results reported in a melting point compilation (Tetko et al.; mined from patent text by program, amines drawn as free bases though some values may be those of a salt).

| SMILES | melting point |
| --- | --- |
| CC(=O)C1CCC2C3CCC4CC(O)C(N5CCOC(C)(C)C5)CC4(C)C3C(O)CC12C (stereo not drawn) | 182 to 185 °C |
| C[C@@H](n1cnc2cc(Cl)ccc2c1=O)[C@](O)(Cn1cncn1)c1ccc(Cl)cc1Cl | 144 to 146 °C |
| Cc1ccc(OCC2CN(C(C)C)C(=O)O2)cn1 (stereo not drawn) | 86 to 88 °C |
| CCOc1cc(-c2ccc(-c3ccc(N=Nc4ccccn4)c(OCC)c3)o2)ccc1N=Nc1ccccn1 | 205 to 210 °C |
| O=P(O)(O)OP(=O)(O)O | 212 °C |
| CN(C)CCOC1(O)C=CC2=NC(C(=O)N3CC(CCl)c4c3ccc3ncccc43)=CC2=C1 (stereo not drawn) | 209 to 215 °C |
| CS(=O)(=O)N(Cc1cccnc1)Cc1ccc(Cl)cc1Cl | 78 to 80 °C |
| CC1CC(=O)NN=C1c1ccc(N2CCNCC2)c(N)c1 (stereo not drawn) | 244 to 245 °C |
| COc1ccc(C2COC(c3c(F)cccc3Cl)=N2)cc1-c1ccccc1 (stereo not drawn) | 80.5 to 82 °C |
| CCCCCCCCCCCCCCOC(=O)CCC(=O)CCC(=O)OCC | 43 °C |
| Oc1c2c(nn1-c1ncccc1C(F)(F)F)CCc1ccccc1-2 | 174 to 175 °C |
| O=Cc1ncn2cc(Br)sc12 | 200 to 201 °C |
| Cc1ncncc1C(=O)Nc1cc(F)c(-n2nc(C(F)(F)F)cc2C2CC2)c(F)c1 | 147 to 150 °C |
| Clc1ccc(NC2COc3ccc(Br)cc32)c(Cl)c1 (stereo not drawn) | 112 to 113 °C |
| CCOC(=O)c1c(N2CCN(CCO)CC2)c2cc(Cl)ccc2[nH]c1=O | 130 to 134 °C |
| CCCCCCCCCCCCCCOc1cccc(C(=O)N(CC(=O)OC)CC(=O)OC)c1 | < 23 °C |
| Cc1noc(NC(=O)N2CCN(c3cc(-c4ccc(F)cc4F)ncn3)CC2)c1C | 198 to 199 °C |
| Cc1cccc(-c2c[nH]nc2-c2ccnc(-c3ccc(OCCN4CCCC4)cc3)c2)n1 | 96 °C |
| N#Cc1cccc(C2=Nc3ccc(-c4cccc(F)c4)cc3NC(=O)C2)c1 | 232 to 235 °C |
| Cc1cc(N)c(Cl)c(C)n1 | 86 °C |
| CN(C)C(=O)c1nc(-c2ccncc2)nc2c1c1ccc(Cl)cc1n2C | 268 to 269 °C |
| CCOc1ccc(C2=NN(C3CCN(C(=O)CCl)CC3)C(=O)[C@@H]3CC=CC[C@H]23)cc1OCC | 135 to 136 °C |

The next lines start with the values.

| melting point | SMILES |
| --- | --- |
| 171 to 172 °C | C[C@H](O)CNc1nc(Oc2ccc(F)cc2F)cc2[nH]nc(-c3ccccc3Cl)c12 |
| 148 to 150 °C | CCCN1C(=O)c2cnc(-c3ccccc3)nc2N(C(=O)CN2CCN(C)CC2)c2ccccc21 |
| 101 °C | Clc1cccc(C(c2ccccc2)(c2ccccc2)n2ccnc2)c1 |
| 123 to 125 °C | O=S(=O)(Nc1ccc2c(OCc3ccc(-c4ccccc4)cc3F)cccc2c1)C(F)(F)F |
| 248 to 249 °C | CC(C)(C)OC(=O)NC(CC(=O)Nc1n[nH]c(=S)s1)c1ccccc1 (stereo not drawn) |
| 142 °C | COC(=O)[C@@H]1C[C@H](C(=O)OC(C)(C)C)N(C(=O)CNC(=O)OC(C)(C)C)[C@@H]1c1ccccc1F (racemic) |
| 99 °C | CCCCSC(=O)NC(=O)C(c1ccccc1)c1ccccc1 |
| 165 to 167 °C | COC(=O)c1cc(C)cc(OC)c1C1=C(OC)C(=O)c2c(O)cccc2C1=O |
| 135 to 148 °C | Cc1nc(-c2ccc(C(=N)NO)cc2)sc1C(=O)N[C@H](C)[C@](O)(Cn1cncn1)c1ccc(F)cc1F |
| 119 to 120 °C | CCc1nccc(NC2COC(c3ccccc3)OC2)c1Cl (stereo not drawn) |
| 96 to 97 °C | COCc1ccc2nc(SCCN3CCN(CC(=O)Nc4c(C(C)C)cccc4C(C)C)CC3)oc2c1COC |
| 152 to 154 °C | OC(C1=NCCN1)(c1ccccc1)c1ccccn1 (stereo not drawn) |
| 120 °C | CN(C)c1cccc(C(=O)Nc2ccc3ccc(Oc4ccccc4)nc3n2)c1 |
| 110 to 112 °C | COC(=O)c1ccc(OCC(O)c2cc3cc(C(C)(C)C)ccc3o2)cc1 (stereo not drawn) |
| 41 to 42 °C | CCc1nc(-c2ccc(OCCCc3ccccc3)cc2)no1 |
| 253 to 255 °C | Nc1nc(-c2ccc(Cl)cc2C(=O)c2ccccc2)c(CN2C(=O)c3ccccc3C2=O)s1 |
